This note sets out measurements from US4996204A, “Pyrido[2,3-d]pyridazinones as aldose reductase inhibitors” (Pfizer Inc., priority 1989, dated 1991).

This assay concerns the target T1, partially purified aldose reductase enzyme obtained from human placenta (Homo sapiens, UniProt P15121).
T1 construct: partially purified aldose reductase enzyme obtained from human placenta; from tissue; host or cells: human placenta
Briefly: inhibition of aldose reductase enzyme activity (procedure of S. Hayman et al. as modified by K. Sestanj et al.). The conditions noted are these: read-out: Percent Inhibition (%) of aldose reductase enzyme activity; for inhibition at 10 µM: 10^-5 M; for inhibition at 1 µM: 10^-6 M; for inhibition at 0.1 µM: 10^-7 M. The assay is classed as biochemical. From the text: Hayman et al., as described in the Journal of Biological Chemistry, Vol. 240, p. 877 (1965) and as modified by K. Sestanj et al. in U.S. Pat. […] In every case, the substrate employed was partially purified aldose reductase enzyme obtained from human placenta.

`O=C(O)Cc1nn(Cc2ccc(Br)cc2F)c(=O)c2cccnc12` [Example 21, 6-(4-bromo-2-fluorobenzyl)-5-oxo-6H-pyrido[2,3-d]pyridazine-8-ylacetic acid]: the inhibition (usually the change of the read-out against control, counted positive when it falls) at 10 µM stood at 86%; the inhibition at 1 µM amounted to 76%; the inhibition at 0.1 µM turned out to be 30%.

With `O=C(O)Cc1nn(Cc2noc(-c3ccccc3C(F)(F)F)n2)c(=O)c2cccnc12` [Example 20, 6-[5-(2-trifluoromethylphenyl)-1,2,4-oxadiazole-3-ylmethyl]-5-oxo-6H-pyrido[2,3-d]pyridazine-8-ylacetic acid], the inhibition at 10 µM was found to be 77%, the inhibition at 1 µM stood at 72% and the inhibition at 0.1 µM worked out at 43%.

As for `O=C(O)Cc1nn(Cc2nc3cc(F)ccc3s2)c(=O)c2cccnc12` [Example 16, 6-(5-fluorobenzothiazole-2-ylmethyl)-5-oxo-6H-pyrido[2,3-d]pyridazine-8-ylacetic acid], the inhibition at 10 µM was 94%, the inhibition at 1 µM was determined as 91% and the inhibition at 0.1 µM was found to be 90%.

For the compound `O=C(O)Cc1nn(Cc2nc3cc(F)cc(F)c3s2)c(=O)c2cccnc12` [Example 17], the inhibition at 10 µM was found to be 75%, the inhibition at 1 µM stood at 65% and the inhibition at 0.1 µM was 39%.

On to `O=C(O)Cc1nn(Cc2nc3cc(Br)ccc3o2)c(=O)c2cccnc12` [Example 18, 6-(5-bromobenzoxazole-2-ylmethyl)-5-oxo-6H-pyrido[2,3-d]pyridazine-8-ylacetic acid], for which the inhibition at 10 µM was 93%, the inhibition at 1 µM was found to be 87% and the inhibition at 0.1 µM turned out to be 31%.

`O=C(O)Cc1nn(Cc2cc3c(Cl)cccc3s2)c(=O)c2cccnc12` [Example 19, 6-(4-chlorobenzothiophene-2-ylmethyl)-5-oxo-6H-pyrido[2,3-d]pyridazine-8-ylacetic acid]: the inhibition at 10 µM was found to be 80%, the inhibition at 1 µM came to 60% and the inhibition at 0.1 µM turned out to be 8%.

In the case of `O=C(O)Cc1nn(Cc2nc3cc(C(F)(F)F)ccc3s2)c(=O)c2cccnc12` [Example 15, 6-(5-trifluoromethylbenzothiazole-2-ylmethyl) -5-oxo-6H-pyrido[2,3-d]pyridazine-8-ylacetic acid], the inhibition at 10 µM is 88%, the inhibition at 1 µM is 81% and the inhibition at 0.1 µM was determined as 74%.
